Assays:
TYK2 JH2 domain = TYK2 JH2 domain (Homo sapiens (Human), UniProt P29597); test: TYK2 JH2 NanoBRET assay; format: binding; conditions: Table 20, read-out: TYK2 IC50
In short: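 Tracer displacement measured by BRET ratio (acceptor over donor) in live HEK293T cells transfected with a NanoLuc-tagged TYK2 JH2 construct; cells co-exposed to test compound and 0.5 µM final K10 tracer for 2 h before substrate/extracellular inhibitor addition.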

human JAK1 = human JAK1 (Homo sapiens (Human), UniProt P23458); test: JAK1 TR-FRET kinase assay; format: biochemical; conditions: TR-FRET, JAK1 2.5 nM
Sequence of human JAK1 (P23458 whole entry): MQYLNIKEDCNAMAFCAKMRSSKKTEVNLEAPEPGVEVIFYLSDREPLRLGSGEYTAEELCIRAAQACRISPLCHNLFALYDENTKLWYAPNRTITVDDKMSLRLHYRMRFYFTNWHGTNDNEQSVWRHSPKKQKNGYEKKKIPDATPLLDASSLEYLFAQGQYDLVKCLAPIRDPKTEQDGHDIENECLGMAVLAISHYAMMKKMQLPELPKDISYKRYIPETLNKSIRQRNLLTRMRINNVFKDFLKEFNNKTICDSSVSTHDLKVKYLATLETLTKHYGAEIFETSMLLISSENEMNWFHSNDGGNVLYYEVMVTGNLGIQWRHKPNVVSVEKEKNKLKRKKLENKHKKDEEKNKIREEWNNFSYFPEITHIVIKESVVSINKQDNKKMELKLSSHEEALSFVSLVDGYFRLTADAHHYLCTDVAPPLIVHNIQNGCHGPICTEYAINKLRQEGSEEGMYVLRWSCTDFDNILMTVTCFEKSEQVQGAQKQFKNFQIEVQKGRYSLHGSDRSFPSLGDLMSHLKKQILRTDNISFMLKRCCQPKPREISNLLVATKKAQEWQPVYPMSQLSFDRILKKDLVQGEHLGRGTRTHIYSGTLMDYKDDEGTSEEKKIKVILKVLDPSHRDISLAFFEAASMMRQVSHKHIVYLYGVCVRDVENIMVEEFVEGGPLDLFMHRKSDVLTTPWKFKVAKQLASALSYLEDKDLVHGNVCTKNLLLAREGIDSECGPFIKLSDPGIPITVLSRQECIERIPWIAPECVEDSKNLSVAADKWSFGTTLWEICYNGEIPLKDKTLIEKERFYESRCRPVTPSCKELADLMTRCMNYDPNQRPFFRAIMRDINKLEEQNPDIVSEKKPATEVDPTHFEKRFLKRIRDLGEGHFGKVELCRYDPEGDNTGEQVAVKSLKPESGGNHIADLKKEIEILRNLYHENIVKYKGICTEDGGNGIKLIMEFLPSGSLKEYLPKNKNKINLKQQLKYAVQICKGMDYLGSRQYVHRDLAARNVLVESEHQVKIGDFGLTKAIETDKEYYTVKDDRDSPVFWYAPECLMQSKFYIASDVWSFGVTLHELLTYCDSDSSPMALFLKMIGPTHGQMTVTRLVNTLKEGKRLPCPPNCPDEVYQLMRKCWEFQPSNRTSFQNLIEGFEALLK

human JAK2 = human JAK2 (Homo sapiens (Human), UniProt O60674); test: JAK2 TR-FRET kinase assay; format: biochemical; conditions: JAK2 0.025 nM
Sequence of human JAK2 (O60674 whole entry): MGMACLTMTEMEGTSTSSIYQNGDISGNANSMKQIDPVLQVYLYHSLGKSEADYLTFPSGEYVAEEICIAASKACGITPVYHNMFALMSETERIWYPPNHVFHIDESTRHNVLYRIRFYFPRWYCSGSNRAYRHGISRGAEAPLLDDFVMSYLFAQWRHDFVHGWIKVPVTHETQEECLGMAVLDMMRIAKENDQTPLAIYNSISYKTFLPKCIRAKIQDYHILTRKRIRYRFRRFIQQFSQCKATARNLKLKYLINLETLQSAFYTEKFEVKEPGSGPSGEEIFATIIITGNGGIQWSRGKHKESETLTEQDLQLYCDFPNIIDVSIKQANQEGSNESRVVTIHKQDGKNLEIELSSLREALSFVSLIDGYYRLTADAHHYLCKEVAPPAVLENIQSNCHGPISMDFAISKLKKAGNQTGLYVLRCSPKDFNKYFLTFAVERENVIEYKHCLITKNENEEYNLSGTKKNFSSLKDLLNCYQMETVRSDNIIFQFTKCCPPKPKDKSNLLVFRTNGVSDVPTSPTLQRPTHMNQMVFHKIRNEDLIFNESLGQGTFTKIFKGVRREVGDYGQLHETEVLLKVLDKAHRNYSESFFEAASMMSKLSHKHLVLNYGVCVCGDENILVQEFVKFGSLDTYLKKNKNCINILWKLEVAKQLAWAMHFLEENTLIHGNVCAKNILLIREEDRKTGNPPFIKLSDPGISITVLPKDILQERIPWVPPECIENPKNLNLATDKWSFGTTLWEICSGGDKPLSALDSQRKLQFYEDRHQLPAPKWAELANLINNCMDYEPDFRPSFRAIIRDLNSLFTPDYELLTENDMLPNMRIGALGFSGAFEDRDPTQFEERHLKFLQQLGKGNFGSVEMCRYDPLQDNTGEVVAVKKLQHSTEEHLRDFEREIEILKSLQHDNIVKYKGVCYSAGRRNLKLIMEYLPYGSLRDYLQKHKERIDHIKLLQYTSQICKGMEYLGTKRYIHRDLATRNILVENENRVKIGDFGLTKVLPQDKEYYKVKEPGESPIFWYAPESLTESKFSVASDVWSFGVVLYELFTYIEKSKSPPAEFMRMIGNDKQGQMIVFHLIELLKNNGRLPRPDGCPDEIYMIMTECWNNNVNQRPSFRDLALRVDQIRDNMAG

human JAK3 = human JAK3 (Homo sapiens (Human), UniProt P52333); test: JAK3 TR-FRET kinase assay; format: biochemical; conditions: JAK3 0.0125 nM
Sequence of human JAK3 (P52333 whole entry): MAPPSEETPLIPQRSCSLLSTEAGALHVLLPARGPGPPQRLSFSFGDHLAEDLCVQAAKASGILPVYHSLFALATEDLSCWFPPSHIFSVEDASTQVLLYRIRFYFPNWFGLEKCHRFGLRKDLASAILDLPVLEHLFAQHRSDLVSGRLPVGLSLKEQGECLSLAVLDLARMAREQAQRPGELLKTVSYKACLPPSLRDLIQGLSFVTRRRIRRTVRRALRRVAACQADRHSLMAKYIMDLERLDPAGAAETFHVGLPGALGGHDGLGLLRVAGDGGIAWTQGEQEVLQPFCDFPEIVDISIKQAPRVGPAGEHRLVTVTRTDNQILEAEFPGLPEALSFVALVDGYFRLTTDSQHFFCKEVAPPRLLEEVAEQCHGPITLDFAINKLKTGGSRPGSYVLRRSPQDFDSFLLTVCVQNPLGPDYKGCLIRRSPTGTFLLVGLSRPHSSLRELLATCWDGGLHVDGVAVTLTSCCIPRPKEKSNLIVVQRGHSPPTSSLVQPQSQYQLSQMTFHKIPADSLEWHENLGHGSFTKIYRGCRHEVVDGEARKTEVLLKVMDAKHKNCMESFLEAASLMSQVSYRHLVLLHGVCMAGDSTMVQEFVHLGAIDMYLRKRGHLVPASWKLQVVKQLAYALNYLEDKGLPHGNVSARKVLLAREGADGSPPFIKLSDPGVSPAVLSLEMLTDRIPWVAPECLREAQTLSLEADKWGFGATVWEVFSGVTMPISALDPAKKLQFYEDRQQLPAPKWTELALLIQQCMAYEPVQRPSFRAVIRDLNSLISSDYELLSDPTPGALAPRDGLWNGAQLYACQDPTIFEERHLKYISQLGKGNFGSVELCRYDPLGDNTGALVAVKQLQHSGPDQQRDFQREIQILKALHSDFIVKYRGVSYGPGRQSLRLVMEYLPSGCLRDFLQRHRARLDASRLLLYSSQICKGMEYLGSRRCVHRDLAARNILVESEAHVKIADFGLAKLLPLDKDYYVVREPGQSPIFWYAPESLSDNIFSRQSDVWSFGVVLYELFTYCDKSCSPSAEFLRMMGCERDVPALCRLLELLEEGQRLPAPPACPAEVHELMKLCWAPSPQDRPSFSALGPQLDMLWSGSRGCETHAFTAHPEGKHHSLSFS

Sequence of TYK2 JH2 domain (P29597 589-875): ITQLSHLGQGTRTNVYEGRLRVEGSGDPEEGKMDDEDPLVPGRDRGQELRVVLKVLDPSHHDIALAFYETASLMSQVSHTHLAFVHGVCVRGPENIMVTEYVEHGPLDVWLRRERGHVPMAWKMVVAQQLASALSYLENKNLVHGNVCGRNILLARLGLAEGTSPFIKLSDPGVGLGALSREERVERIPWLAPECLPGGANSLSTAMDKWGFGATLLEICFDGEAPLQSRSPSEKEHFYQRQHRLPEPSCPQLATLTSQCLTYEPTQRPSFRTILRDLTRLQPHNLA

SMILES | IC50 (TYK2 JH2 domain) [nM] | IC50 (human JAK1) [nM] | IC50 (human JAK2) [nM] | IC50 (human JAK3) [nM]
CCC(=O)c1cnc(NC(=O)[C@@H]2C[C@H]2CC#N)cc1Nc1cccc(-c2ncn(C)n2)c1OC [Compound 22L] | ≥ 500 | ≥ 500 | ≥ 500 | ≥ 500
CCC(=O)c1cnc(Nc2ccc(-c3cn(C)cn3)cn2)cc1Nc1cccc(-c2ncn(C)n2)c1OC [Compound 15B] | < 5 | ≥ 500 | ≥ 500 | 50 to 500
CCC(=O)c1cnc(Nc2ccc(OC3COC3)c(C)n2)cc1Nc1cccc(-c2ncn(C)n2)c1OC [Compound 18ZZZ] | < 5 | ≥ 500 | 50 to 500 | 50 to 500
CCC(=O)c1cnc(Nc2cnc(O[C@@H]3CCCN(C)C3)cn2)cc1Nc1cccc(-c2ncn(C)n2)c1OC [Compound 18PPP] | 5 to 50 | ≥ 500 | ≥ 500 | ≥ 500
CCC(=O)c1cnc(Nc2ccc(O[C@H]3CN(C)C[C@@H]3F)cn2)cc1Nc1cccc(-c2ncn(C)n2)c1OC [Compound 18UUU] | < 5 | ≥ 500 | ≥ 500 | ≥ 500
CCC(=O)c1cnc(NC(=O)C2CC2)cc1Nc1cc(C#N)cc(-c2ncn(C)n2)c1OC [Compound 25B] | ≥ 500 | ≥ 500 | ≥ 500 | ≥ 500
CCC(=O)c1cnc(Nc2ccc(C(=O)N(C)C)cn2)cc1Nc1cccc(-c2ncn(C)n2)c1OC [Compound 8D] | < 5 | ≥ 500 | ≥ 500 | ≥ 500
CCC(=O)c1cnc(NC(=O)CC2CCN(C)CC2)cc1Nc1cccc(-c2ncn(C)n2)c1OC [Compound 23A, N-(4-((2-methoxy-3-(1-methyl-1H-1,2,4-triazol-3-yl)phenyl)amino)-5-propionylpyridin-2-yl)-2-(1-methylpiperidin-4-yl)acetamide] | 5 to 50 | ≥ 500 | ≥ 500 | ≥ 500
CCC(=O)c1cnc(Nc2cnc(C(N)C(F)(F)F)cn2)cc1Nc1cccc(-c2ncn(C)n2)c1OC (stereo not drawn) [Compound 9TTT] | 5 to 50 | ≥ 500 | ≥ 500 | ≥ 500
CCC(=O)c1cnc(Nc2ccc(S(C)(=O)=O)cn2)cc1Nc1cccc(-c2ncn(C)n2)c1OC [Compound 12A, 1-(4-((2-methoxy-3-(1-methyl-1H-1,2,4-triazol-3-yl)phenyl)amino)-6-((5-(methylsulfonyl)pyridin-2-yl)amino)pyridin-3-yl)propan-1-one] | < 5 | ≥ 500 | ≥ 500 | ≥ 500
CCC(=O)c1cnc(NC(=O)[C@@H]2C[C@@H]2NC(C)=O)cc1Nc1cccc(-c2ncn(C)n2)c1OC [Compound 22K] | ≥ 500 | ≥ 500 | ≥ 500 | ≥ 500
CCC(=O)c1cnc(Nc2cnc(O[C@@H]3CCN(CC(F)(F)F)C3)cn2)cc1Nc1cccc(-c2ncn(C)n2)c1OC [Compound 18LLL] | 5 to 50 | ≥ 500 | ≥ 500 | ≥ 500
CCC(=O)c1cnc(Nc2ccc(CN(C)C)c(C(F)(F)F)n2)cc1Nc1cccc(-c2ncn(C)n2)c1OC [Compound 9RRRR] | 5 to 50 | ≥ 500 | ≥ 500 | ≥ 500
COc1c(Nc2cc(Nc3ccc(OCCCO)cn3)ncc2C(=O)C2CC2)cccc1-c1ncn(C)n1 [Compound 18C] | < 5 | ≥ 500 | ≥ 500 | ≥ 500
CCC(=O)c1cnc(Nc2cc(-c3cn(C)cn3)ccn2)cc1Nc1cccc(-c2ncn(C)n2)c1OC [Compound 15E] | < 5 | ≥ 500 | ≥ 500 | ≥ 500
CCC(=O)c1cnc(Nc2ccc([C@@H](C)N3C[C@@H](O)[C@H](O)C3)cn2)cc1Nc1cccc(-c2ncn(C)n2)c1OC [Compound 9QQ] | 5 to 50 | ≥ 500 | ≥ 500 | 50 to 500
CCC(=O)c1cnc(Nc2ccc(S(C)(=N)=O)cn2)cc1Nc1cccc(-c2ncn(C)n2)c1OC (stereo not drawn) [Compound 14A, imino(6-((4-((2-methoxy-3-(1-methyl-1H-1,2,4-triazol-3-yl)phenyl)amino)-5-propionylpyridin-2-yl)amino)pyridin-3-yl)(methyl)-16-sulfanone] | < 5 | ≥ 500 | ≥ 500 | ≥ 500
CCC(=O)c1cnc(Nc2ccc(CN3CCCCC3)cn2)cc1Nc1cccc(-c2ncn(C)n2)c1OC [Compound 9RR] | < 5 | ≥ 500 | ≥ 500 | ≥ 500
CCC(=O)c1cnc(Nc2cnc(O[C@@H]3CCN(C)C3)c(C)n2)cc1Nc1cccc(-c2ncn(C)n2)c1OC [Compound 18JJJ] | 5 to 50 | ≥ 500 | ≥ 500 | ≥ 500
CCC(=O)c1cnc(Nc2cc(CN3CCCC3)ccn2)cc1Nc1cccc(-c2ncn(C)n2)c1OC [Compound 9IIII] | < 5 | ≥ 500 | 50 to 500 | 50 to 500

SMILES | IC50 (TYK2 JH2 domain) [nM] | IC50 (human JAK1) [nM] | IC50 (human JAK2) [nM] | IC50 (human JAK3) [nM]
CCC(=O)c1cnc(NC(=O)CCN2CCCC2)cc1Nc1cccc(-c2ncn(C)n2)c1OC [Compound 23D] | 50 to 500 | ≥ 500 | ≥ 500 | ≥ 500
COc1c(Nc2cc(Nc3ccc(-c4ncn(C)n4)cn3)ncc2C(=O)C2CC2)cccc1-c1ncn(C)n1 [Compound 15N] | 5 to 50 | ≥ 500 | ≥ 500 | ≥ 500
[2H]C([2H])([2H])N1CC[C@@H](Oc2ccc(Nc3cc(Nc4cccc(-c5ncn(C)n5)c4OC)c(C(=O)CC)cn3)nc2)C1 [Compound 18X] | < 5 | ≥ 500 | ≥ 500 | 50 to 500
CCC(=O)c1cnc(NC(=O)[C@@H]2C[C@H]2CS(C)(=O)=O)cc1Nc1cccc(-c2ncn(C)n2)c1OC [Compound 22N] | 50 to 500 | ≥ 500 | ≥ 500 | ≥ 500
CCC(=O)c1cnc(Nc2cnc(OCCCN3CCCC3)cn2)cc1Nc1cccc(-c2ncn(C)n2)c1OC [Compound 18WW] | < 5 | ≥ 500 | ≥ 500 | ≥ 500
CCC(=O)c1cnc(Nc2ccc(CCN(C)C)cn2)cc1Nc1cccc(-c2ncn(C)n2)c1OC [Compound 11A, 1-(6-((5-(2-(dimethylamino)ethyl)pyridin-2-yl)amino)-4-((2-methoxy-3-(1-methyl-1H-1,2,4-triazol-3-yl)phenyl)amino)pyridin-3-yl)propan-1-one] | < 5 | ≥ 500 | ≥ 500 | ≥ 500
COc1c(Nc2cc(Nc3ccc(OC(CO)CO)cn3)ncc2C(=O)C2CC2)cccc1-c1ncn(C)n1 [Compound 18K] | 5 to 50 | ≥ 500 | ≥ 500 | ≥ 500
CCC(=O)c1cnc(Nc2cc(C(=O)NC)ccn2)cc1Nc1cccc(-c2ncn(C)n2)c1OC [Compound 8G] | < 5 | ≥ 500 | ≥ 500 | ≥ 500
CCC(=O)c1cnc(Nc2ccc(S(=O)(=O)C3CC3)cn2)cc1Nc1nccc(-c2ncn(C)n2)c1OC [Compound 13K] | 5 to 50 | ≥ 500 | 50 to 500 | 50 to 500
CCC(=O)c1cnc(Nc2nccc(CN(C)C)c2F)cc1Nc1cccc(-c2ncn(C)n2)c1OC [Compound 9TTTT] | 5 to 50 | ≥ 500 | ≥ 500 | ≥ 500
COc1c(-c2ncn(C)n2)ccnc1Nc1cc(Nc2ccc(-n3ccnc3)cn2)ncc1C(=O)C1CC1 [Compound 15R] | 5 to 50 | ≥ 500 | ≥ 500 | ≥ 500
CCC(=O)c1cnc(Nc2ccn(-c3ccccc3)c(=O)n2)cc1Nc1cccc(-c2ncn(C)n2)c1OC [Compound 20A, 4-((4-((2-methoxy-3-(1-methyl-1H-1,2,4-triazol-3-yl)phenyl)amino)-5-propionylpyridin-2-yl)amino)-1-phenylpyrimidin-2(1H)-one] | < 5 | ≥ 500 | ≥ 500 | ≥ 500
CCC(=O)c1cnc(Nc2cnc(OCCn3cnc(C)c3)cn2)cc1Nc1cccc(-c2ncn(C)n2)c1OC [Compound 18HHH] | 5 to 50 | ≥ 500 | ≥ 500 | ≥ 500
CCC(=O)c1cnc(Nc2ccc(CN(C)C3COC3)cn2)cc1Nc1cccc(-c2ncn(C)n2)c1OC [Compound 9DDD] | < 5 | ≥ 500 | ≥ 500 | ≥ 500
CCC(=O)c1cnc(Nc2ccc([C@@H](C)N3CC[C@H](O)C3)cn2)cc1Nc1cccc(-c2ncn(C)n2)c1OC [Compound 9MM] | < 5 | ≥ 500 | ≥ 500 | ≥ 500
CCC(=O)c1cnc(Nc2cc(C(=O)N(C)C)ncn2)cc1Nc1cccc(-c2ncn(C)n2)c1OC [Compound 8O] | < 5 | ≥ 500 | ≥ 500 | ≥ 500
CCC(=O)c1cnc(Nc2ccc(C(C)N)nn2)cc1Nc1cccc(-c2ncn(C)n2)c1OC (stereo not drawn) [Compound 9III] | 5 to 50 | ≥ 500 | ≥ 500 | ≥ 500
CCC(=O)c1cnc(Nc2cc(OCCO)n(C)n2)cc1Nc1cccc(-c2ncn(C)n2)c1OC [Compound 21AA] | 5 to 50 | ≥ 500 | ≥ 500 | 50 to 500
CCC(=O)c1cnc(Nc2cnc(OCCN3CC(C#N)C3)cn2)cc1Nc1cccc(-c2ncn(C)n2)c1OC [Compound 18RR] | 5 to 50 | ≥ 500 | ≥ 500 | ≥ 500
